Measured values reported in PubChem BioAssay AID248 (DTP/NCI, 2004).
Several values for one entry are separate records, joined by “and”; a condition that tells them apart may be missing. Identical values can stand only once. Toxic doses and inconclusive results are not listed.

Tested on: L1210 leukemia ip in BDF1 mice, survival T/C
Assay: NCI In Vivo Anticancer Drug Screen. Data for tumor model L1210 Leukemia (intraperitoneal) in B6D2F1 (BDF1) mice
Details: higher = longer survival
In short: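 Antitumor effect is assessed in tumor-bearing animals. Survival in the compound arm is compared with a vehicle-dosed control arm and expressed as their quotient.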

[1] = endpoint: mean survival time, dose: 100.0 mg/kg/injection, schedule: Q01DX009 (ip), vehicle: Klucel (hydroxypropylcellulose) (HPC)
[2] = endpoint: mean survival time, dose: 200.0 mg/kg/injection, schedule: Q01DX009 (ip), vehicle: Klucel (hydroxypropylcellulose) (HPC)
[3] = endpoint: mean survival time, dose: 400.0 mg/kg/injection, schedule: Q01DX009 (ip), vehicle: Klucel (hydroxypropylcellulose) (HPC)

Nc1ncn(C2OC(CO)C(O)C2O)c(=O)n1 (centres undefined)
T/C (endpoint: mean survival time, dose: 0.12 mg/kg/injection, schedule: Q01DX009 (ip), vehicle: saline): 111 % of control
T/C (endpoint: mean survival time, dose: 0.23 mg/kg/injection, schedule: Q01DX009 (ip), vehicle: saline): 101 % of control and 121 % of control
T/C (endpoint: mean survival time, dose: 0.5 mg/kg/injection, schedule: Q01DX009 (ip), vehicle: saline): 156 % of control
T/C (endpoint: mean survival time, dose: 0.75 mg/kg/injection, schedule: Q01DX009 (ip), vehicle: other): 161 % of control
T/C (endpoint: mean survival time, dose: 1.0 mg/kg/injection, schedule: Q01DX005 (oral), vehicle: saline): 114 % of control
T/C (endpoint: mean survival time, dose: 1.0 mg/kg/injection, schedule: Q## X008 (ip), vehicle: saline): 121 % of control
T/C (endpoint: mean survival time, dose: 1.0 mg/kg/injection, schedule: Q## X040 (oral), vehicle: saline): 105 % of control
T/C (endpoint: mean survival time, dose: 1.25 mg/kg/injection, schedule: Q01DX009 (ip), vehicle: saline): 170 % of control
T/C (endpoint: mean survival time, dose: 1.3 mg/kg/injection, schedule: Q03HX008 (ip), vehicle: saline): 171 % of control
T/C (endpoint: mean survival time, dose: 1.5 mg/kg/injection, schedule: Q01DX005 (ip), vehicle: clinical formulation): 150 % of control
T/C (endpoint: mean survival time, dose: 1.5 mg/kg/injection, schedule: Q01DX009 (ip), vehicle: water): 164 % of control and 166 % of control
T/C (endpoint: mean survival time, dose: 2.0 mg/kg/injection, schedule: Q01DX005 (oral), vehicle: saline): 124 % of control
T/C (endpoint: mean survival time, dose: 2.0 mg/kg/injection, schedule: Q01DX015 (ip), vehicle: other): 159 % of control
T/C (endpoint: mean survival time, dose: 2.0 mg/kg/injection, schedule: Q03HX008 (ip), vehicle: saline): 155 % of control
T/C (endpoint: mean survival time, dose: 2.0 mg/kg/injection, schedule: Q## X024 (ip), vehicle: saline): 151 % of control
T/C (endpoint: mean survival time, dose: 2.0 mg/kg/injection, schedule: Q## X040 (oral), vehicle: saline): 108 % of control
T/C (endpoint: mean survival time, dose: 2.3 mg/kg/injection, schedule: Q04DX002 (ip), vehicle: saline): 117 % of control and 123 % of control
T/C (endpoint: mean survival time, dose: 2.5 mg/kg/injection, schedule: Q01DX009 (ip), vehicle: carboxymethylcellulose (CMC)): 155 % of control
T/C (endpoint: mean survival time, dose: 3.0 mg/kg/injection, schedule: Q01DX001 (ip), vehicle: saline): 119 % of control
T/C (endpoint: mean survival time, dose: 3.0 mg/kg/injection, schedule: Q01DX005 (ip), vehicle: water): 150 % of control
T/C (endpoint: mean survival time, dose: 3.0 mg/kg/injection, schedule: Q01DX009 (ip), vehicle: saline with Tween-80): 111 % of control
T/C (endpoint: mean survival time, dose: 3.0 mg/kg/injection, schedule: Q01DX009 (oral), vehicle: saline): 158 % of control
T/C (endpoint: mean survival time, dose: 3.0 mg/kg/injection, schedule: Q03HX008 (ip), vehicle: saline): 170 % of control
T/C (endpoint: mean survival time, dose: 3.12 mg/kg/injection, schedule: Q01DX009 (ip), vehicle: saline): 164 % of control
T/C (endpoint: mean survival time, dose: 3.12 mg/kg/injection, schedule: Q04DX003 (ip), vehicle: water): 157 % of control and 160 % of control
T/C (endpoint: mean survival time, dose: 4.0 mg/kg/injection, schedule: Q## X024 (ip), vehicle: saline): 168 % of control
T/C (endpoint: mean survival time, dose: 6.0 mg/kg/injection, schedule: Q01DX005 (ip), vehicle: water): 112 % of control
T/C (endpoint: mean survival time, dose: 6.0 mg/kg/injection, schedule: Q01DX009 (ip), vehicle: clinical formulation): 103 % of control
T/C (endpoint: mean survival time, dose: 6.0 mg/kg/injection, schedule: Q01DX009 (ip), vehicle: other): 104 % of control
T/C (endpoint: mean survival time, dose: 6.0 mg/kg/injection, schedule: Q01DX009 (ip), vehicle: saline): 98 % of control
T/C (endpoint: mean survival time, dose: 6.0 mg/kg/injection, schedule: Q01DX009 (ip), vehicle: water): 94 % of control
T/C (endpoint: mean survival time, dose: 6.0 mg/kg/injection, schedule: Q01DX009 (oral), vehicle: saline): 172 % of control
T/C (endpoint: mean survival time, dose: 6.0 mg/kg/injection, schedule: Q## X008 (ip), vehicle: saline): 156 % of control
T/C (endpoint: mean survival time, dose: 7.2 mg/kg/injection, schedule: Q01DX009 (ip), vehicle: saline): 111 % of control
T/C (endpoint: mean survival time, dose: 8.0 mg/kg/injection, schedule: Q01DX005 (oral), vehicle: saline): 164 % of control
T/C (endpoint: mean survival time, dose: 8.0 mg/kg/injection, schedule: Q## X040 (oral), vehicle: saline): 163 % of control
T/C (endpoint: mean survival time, dose: 10.0 mg/kg/injection, schedule: Q01DX009 (ip), vehicle: saline): 111 % of control
T/C (endpoint: mean survival time, dose: 12.0 mg/kg/injection, schedule: Q01DX001 (ip), vehicle: saline): 150 % of control
T/C (endpoint: mean survival time, dose: 12.0 mg/kg/injection, schedule: Q01DX005 (ip), vehicle: saline): 168 % of control
T/C (endpoint: mean survival time, dose: 12.0 mg/kg/injection, schedule: Q01DX009 (ip), vehicle: saline): 98 % of control
T/C (endpoint: mean survival time, dose: 12.0 mg/kg/injection, schedule: Q## X008 (ip), vehicle: saline): 161 % of control and 162 % of control
T/C (endpoint: mean survival time, dose: 12.5 mg/kg/injection, schedule: Q01DX001 (ip), vehicle: saline): 164 % of control
T/C (endpoint: mean survival time, dose: 12.5 mg/kg/injection, schedule: Q01DX005 (ip), vehicle: saline): 172 % of control
T/C (endpoint: mean survival time, dose: 22.0 mg/kg/injection, schedule: Q01DX001 (ip), vehicle: other): 153 % of control
T/C (endpoint: mean survival time, dose: 22.0 mg/kg/injection, schedule: Q01DX001 (ip), vehicle: saline): 160 % of control
T/C (endpoint: mean survival time, dose: 24.0 mg/kg/injection, schedule: Q01DX001 (ip), vehicle: saline): 158 % of control
T/C (endpoint: mean survival time, dose: 24.0 mg/kg/injection, schedule: Q01DX009 (ip), vehicle: saline): 93 % of control
T/C (endpoint: mean survival time, dose: 24.0 mg/kg/injection, schedule: Q## X008 (ip), vehicle: saline): 171 % of control
T/C (endpoint: mean survival time, dose: 25.0 mg/kg/injection, schedule: Q01DX001 (ip), vehicle: saline): 166 % of control and 168 % of control
T/C (endpoint: mean survival time, dose: 32.0 mg/kg/injection, schedule: Q01DX001 (oral), vehicle: saline): 112 % of control
T/C (endpoint: mean survival time, dose: 32.0 mg/kg/injection, schedule: Q## X003 (oral), vehicle: saline): 163 % of control
T/C (endpoint: mean survival time, dose: 32.0 mg/kg/injection, schedule: Q## X024 (oral), vehicle: saline): 173 % of control
T/C (endpoint: mean survival time, dose: 33.0 mg/kg/injection, schedule: Q01DX001 (ip), vehicle: saline): 153 % of control
T/C (endpoint: mean survival time, dose: 48.0 mg/kg/injection, schedule: Q01DX009 (ip), vehicle: saline): 102 % of control
T/C (endpoint: mean survival time, dose: 64.0 mg/kg/injection, schedule: Q01DX001 (oral), vehicle: saline): 111 % of control
T/C (endpoint: mean survival time, dose: 64.0 mg/kg/injection, schedule: Q## X003 (oral), vehicle: saline): 163 % of control and 164 % of control
T/C (endpoint: mean survival time, dose: 64.0 mg/kg/injection, schedule: Q## X008 (oral), vehicle: saline): 158 % of control
T/C (endpoint: mean survival time, dose: 69.0 mg/kg/injection, schedule: Q04DX002 (ip), vehicle: saline): 150 % of control
T/C (endpoint: mean survival time, dose: 75.0 mg/kg/injection, schedule: Q01DX001 (ip), vehicle: other): 168 % of control
T/C (endpoint: mean survival time, dose: 96.0 mg/kg/injection, schedule: Q01DX001 (ip), vehicle: saline): 174 % of control
T/C (endpoint: mean survival time, dose: 96.0 mg/kg/injection, schedule: Q## X003 (ip), vehicle: saline): 114 % of control
T/C (endpoint: mean survival time, dose: 100.0 mg/kg/injection, schedule: Q01DX001 (ip), vehicle: other): 162 % of control
T/C (endpoint: mean survival time, dose: 125.0 mg/kg/injection, schedule: Q01DX001 (ip), vehicle: saline): 151 % of control
T/C (endpoint: mean survival time, dose: 150.0 mg/kg/injection, schedule: Q01DX001 (ip), vehicle: saline): 154 % of control
T/C (endpoint: mean survival time, dose: 200.0 mg/kg/injection, schedule: Q01DX001 (ip), vehicle: other): 118 % of control
T/C (endpoint: mean survival time, dose: 256.0 mg/kg/injection, schedule: Q## X003 (oral), vehicle: saline): 171 % of control
T/C (endpoint: mean survival time, dose: 512.0 mg/kg/injection, schedule: Q## X003 (oral), vehicle: saline): 111 % of control
T/C (endpoint: mean survival time, dose: 768.0 mg/kg/injection, schedule: Q01DX001 (oral), vehicle: saline): 157 % of control
T/C (endpoint: median survival time, dose: 0.75 mg/kg/injection, schedule: Q01DX009 (ip), vehicle: saline): 160 % of control
T/C (endpoint: median survival time, dose: 0.78 mg/kg/injection, schedule: Q01DX009 (ip), vehicle: saline): 150 % of control
T/C (endpoint: median survival time, dose: 1.0 mg/kg/injection, schedule: Q01DX005 (ip), vehicle: saline): 120 % of control
T/C (endpoint: median survival time, dose: 1.3 mg/kg/injection, schedule: Q01DX009 (ip), vehicle: saline): 154 % of control and 159 % of control
T/C (endpoint: median survival time, dose: 2.0 mg/kg/injection, schedule: Q01DX005 (ip), vehicle: saline): 169 % of control
T/C (endpoint: median survival time, dose: 3.6 mg/kg/injection, schedule: Q01DX009 (ip), vehicle: saline): 100 % of control and 104 % of control
T/C (endpoint: median survival time, dose: 5.0 mg/kg/injection, schedule: Q01DX001 (ip), vehicle: saline): 121 % of control and 122 % of control
T/C (endpoint: median survival time, dose: 6.0 mg/kg/injection, schedule: Q01DX009 (ip), vehicle: saline): 110 % of control
T/C (endpoint: median survival time, dose: 8.0 mg/kg/injection, schedule: Q01DX005 (ip), vehicle: saline): 154 % of control
T/C (endpoint: median survival time, dose: 8.4 mg/kg/injection, schedule: Q01DX009 (ip), vehicle: saline): 99 % of control and 100 % of control
T/C (endpoint: median survival time, dose: 40.0 mg/kg/injection, schedule: Q01DX001 (ip), vehicle: saline): 153 % of control and 155 % of control
T/C (endpoint: median survival time, dose: 80.0 mg/kg/injection, schedule: Q01DX001 (ip), vehicle: saline): 151 % of control and 155 % of control

Cc1ccccc1SC(=O)Nc1ccc([N+](=O)[O-])cc1Cl
T/C [1]: 96 % of control
T/C [2]: 94 % of control
T/C [3]: 94 % of control

O=C(O)C1OC(Oc2ccc3oc4ccccc4c(=O)c3c2)C(O)C(O)C1O (centres undefined)
T/C [1]: 91 % of control
T/C [2]: 97 % of control
T/C [3]: 111 % of control

Cc1cccc(C)c1OC(=O)NCCCCCCNC(=O)Oc1c(C)cccc1C
T/C [1]: 102 % of control
T/C [2]: 92 % of control
T/C [3]: 92 % of control
